# Experimental data: patent US20250230193A1, “CYCLIC COMPOUND HAVING SELECTIVE KRAS INHIBITORY EFFECT ON HRAS AND NRAS” (CHUGAI SEIYAKU KABUSHIKI KAISHA, priority 2022, published 2025)
# Where a SMILES comes first, the peptide text is derived from it. Bridges are numbered along the chain shown (N, C = ends). [ ]: non-standard residue; d: D form. hPhe(3-Cl-4-CF3) = N[C@@H](CCc1ccc(C(F)(F)F)c(Cl)c1)C(=O)O; NPrPhe(4-CF3) = CCCN[C@@H](Cc1ccc(C(F)(F)F)cc1)C(=O)O; NMeGly(cPent) = CN[C@H](C(=O)O)C1CCCC1; Pro(4,4-F2) = O=C(O)[C@@H]1CC(F)(F)CN1; NMeD = CN[C@@H](CC(=O)O)C(=O)O; NMeL = CN[C@@H](CC(C)C)C(=O)O; Ac5c = NC1(C(=O)O)CCCC1; NEtG = CCNCC(=O)O; Sar = CNCC(=O)O
# Key:
# [1] = target: GDP-bound HRAS wild-type protein (Homo sapiens, UniProt P01112); assay: Binding to HRAS by surface plasmon resonance (SPR), Single Cycle Kinetics
# Sequence of GDP-bound HRAS wild-type protein (P01112 whole entry): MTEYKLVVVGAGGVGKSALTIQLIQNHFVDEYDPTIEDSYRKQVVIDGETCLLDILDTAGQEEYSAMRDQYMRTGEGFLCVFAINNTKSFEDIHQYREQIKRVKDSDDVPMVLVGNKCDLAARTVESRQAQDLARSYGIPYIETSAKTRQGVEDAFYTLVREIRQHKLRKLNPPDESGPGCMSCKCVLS
# [2] = target: GDP-bound NRAS wild-type protein (Homo sapiens, UniProt P01111); assay: Binding to NRAS by surface plasmon resonance (SPR), Single Cycle Kinetics
# Sequence of GDP-bound NRAS wild-type protein (P01111 whole entry): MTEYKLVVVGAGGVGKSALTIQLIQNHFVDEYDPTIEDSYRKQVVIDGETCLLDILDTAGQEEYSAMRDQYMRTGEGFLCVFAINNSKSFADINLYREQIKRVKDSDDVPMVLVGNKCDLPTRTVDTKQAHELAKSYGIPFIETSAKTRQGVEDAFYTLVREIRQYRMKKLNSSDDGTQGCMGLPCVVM
# [3] = SPR, GDP-bound HRAS wild-type vs GDP-bound KRAS wild-type
# [4] = SPR, GDP-bound NRAS wild-type vs GDP-bound KRAS wild-type
SMILES,"HRAS/KRAS (ratio of KD value with respect to HRAS to KD value with respect to KRAS) [1, 3]","NRAS/KRAS (ratio of KD value with respect to NRAS to KD value with respect to KRAS) [2, 4]",other results
CCO[C@@H]1C[C@H]2C(=O)NC3(CC(C)(C)C3)C(=O)N(C)[C@@H](C(CC)CC)C(=O)N(C)[C@H](C(=O)N(C)C)CC(=O)N(C)[C@@H](CC)C(=O)N[C@@H]([C@@H](C)CC)C(=O)N(C)CC(=O)N(C)[C@H]3C/C=C\CCN(C3=O)[C@@H](Cc3ccc(C)cc3)C(=O)N(C)CC(=O)N[C@@H](CCc3ccc(C(F)(F)F)c(Cl)c3)C(=O)N2C1 [PP2154],A (a compound having 10 or more and less than 20 is denoted as A),A (a compound having 10 or more and less than 20 is denoted as A),
CCO[C@@H]1C[C@H]2C(=O)NC3(CC(C)(C)C3)C(=O)N(C)[C@@H](C3CCCC3)C(=O)N(C)[C@H](C(=O)N3CCCCC3)CC(=O)N(C)[C@H]3CC/C=C/c4ccc(cc4)C[C@@H](C(=O)N(C)CC(=O)N[C@@H](CCc4ccc(Cl)c(Cl)c4)C(=O)N2C1)N1CC/C=C\C[C@@H](C1=O)N(C)C(=O)CN(C)C(=O)[C@H]([C@@H](C)CC)NC3=O [PP2597],,,HRAS/KRAS (ratio of KD value with respect to GDP-bound HRAS wild-type protein to KD value with respect to KRAS) ([1]; class symbols): A (a compound having 10 or more and less than 20 is denoted as A); NRAS/KRAS (ratio of KD value with respect to GDP-bound NRAS wild-type protein to KD value with respect to KRAS) ([2]; class symbols): A (a compound having 10 or more and less than 20 is denoted as A)
"CCCN1C(=O)CN(C)C(=O)CN(CC)C(=O)[C@H]([C@@H](C)CC)NC(=O)[C@H](CC(C)C)N(C)C(=O)C[C@@H](C(=O)N(C)C)N(C)C(=O)[C@H](C2CCCC2)N(C)C(=O)C2(CCCC2)NC(=O)[C@@H]2CC(F)(F)CN2C(=O)[C@H](CCc2ccc(C(F)(F)F)c(Cl)c2)NC(=O)CN(C)C(=O)[C@@H]1Cc1ccc(C(F)(F)F)cc1 [PP0425] ([NMeL]I[NEtG][Sar][NPrPhe(4-CF3)][Sar][hPhe(3-Cl-4-CF3)][Pro(4,4-F2)][Ac5c][NMeGly(cPent)][NMeD]-NMe2; lactam N-11)",,,HRAS/KRAS (ratio of KD value with respect to GDP-bound HRAS wild-type protein to KD value with respect to KRAS) ([1]; SPR): C (A compound having a KD ratio of 0.1 or more and less than 3 is denoted as C); NRAS/KRAS (ratio of KD value with respect to GDP-bound NRAS wild-type protein to KD value with respect to KRAS) ([2]; SPR): B (a compound having 3 or more and less than 10 is denoted as B)
CCOC[C@H]1C(=O)N[C@@H]([C@@H](C)CC)C(=O)N(C)CC(=O)N(C)[C@H]2C/C=C\CCN(C2=O)[C@@H](Cc2ccc(C(F)(F)F)cc2)C(=O)N(C)CC(=O)N[C@@H](CCc2ccc(C(F)(F)F)c(OC)c2)C(=O)N2C[C@@H](C)C[C@H]2C(=O)NC2(CC(C)(C)C2)C(=O)N(C)[C@@H](C2CCCC2)C(=O)N(C)[C@H](C(=O)N(C)CC)CC(=O)N1C [PP1993],,,"HRAS/KRAS (ratio of KD value for HRAS to KD value for KRAS) ([1]; KD ratio, GDP-bound HRAS wild-type vs GDP-bound KRAS wild-type, SPR): A (a compound having 10 or more and less than 20 is denoted as A); NRAS/KRAS (ratio of KD value for NRAS to KD value for KRAS) ([2]; KD ratio, GDP-bound NRAS wild-type vs GDP-bound KRAS wild-type, SPR): A (a compound having 10 or more and less than 20 is denoted as A)"
CC[C@H](C)[C@@H]1NC(=O)[C@H](C2CCC2)N(C)C(=O)C[C@@H](C(=O)N(C)CC)N(C)C(=O)[C@H](C2CCCC2)N(C)C(=O)C2(CCC2)NC(=O)[C@@H]2C[C@H](C)CN2C(=O)[C@H](CCc2cc(F)c(C(F)(F)F)c(F)c2)NC(=O)CN(C)C(=O)[C@H](Cc2ccc(C(F)(F)F)cc2)N2CC/C=C\C[C@@H](C2=O)N(C)C(=O)CN(C)C1=O [PP2082],A (a compound having 10 or more and less than 20 is denoted as A),AA (a compound having 20 or more is denoted as AA),
CCO[C@@H]1C[C@H]2C(=O)NC3(CC(C)(C)C3)C(=O)N(C)[C@@H](C(CC)CC)C(=O)N(C)[C@H](C(=O)N3CCCC3)CC(=O)N(C)[C@@H](COC)C(=O)N[C@@H]([C@@H](C)CC)C(=O)N(C)CC(=O)N(C)[C@H]3C/C=C\CCN(C3=O)[C@@H](Cc3ccc(C)cc3)C(=O)N(C)CC(=O)N[C@@H](CCc3cc(F)c(C(F)(F)F)c(F)c3)C(=O)N2C1 [PP2139],A (a compound having 10 or more and less than 20 is denoted as A),AA (a compound having 20 or more is denoted as AA),
